The text below walks through data of patent US7728028B2, “Substituted imidazoline compounds” (Gruenenthal GmbH, priority 2005, dated 2010).

As a reminder, the inhibition is the share of the control response that was lost under treatment.

T1 sequence (P35372 whole entry): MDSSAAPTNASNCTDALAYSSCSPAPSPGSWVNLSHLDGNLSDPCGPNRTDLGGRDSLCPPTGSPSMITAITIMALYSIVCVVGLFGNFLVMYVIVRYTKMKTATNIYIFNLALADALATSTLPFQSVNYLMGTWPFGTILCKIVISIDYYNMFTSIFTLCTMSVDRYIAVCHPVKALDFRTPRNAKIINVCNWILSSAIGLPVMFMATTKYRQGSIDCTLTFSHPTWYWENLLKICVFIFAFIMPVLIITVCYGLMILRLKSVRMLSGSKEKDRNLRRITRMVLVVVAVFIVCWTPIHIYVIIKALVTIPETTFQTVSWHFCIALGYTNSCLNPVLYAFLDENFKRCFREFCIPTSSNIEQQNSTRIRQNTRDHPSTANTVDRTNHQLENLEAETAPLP

The experiment concerns the target T1, human μ-opiate receptor (Homo sapiens, UniProt P35372).
T1 construct: purchased PerkinElmer Life Sciences, Zaventem, Belgium RB-HOM; host or cells: CHO-K1 cells (recombinant expression; membrane preparation)
Put plainly: Affinity for the human μ-opiate receptor ([3H]-naloxone displacement, SPA). The conditions noted are these: Table 2, Examples 11-161; test substance 1 μmole/l; inhibition of specific [3H]-naloxone binding; CHO-K1 membranes; read-out: μ-Opioid receptor, % inhibition [1 μM]. Here is the method:
Investigations on the Efficacy of the Compounds According to the Invention Method for Determining the Affinity for the Human μ-Opiate Receptor
The receptor affinity for the human μ-opiate receptor is determined in a homogeneous batch in microtiter plates. For this purpose dilution series of the substances to be tested are incubated with a receptor membrane preparation (15-40 μg protein/250 μl incubation batch) of CHO-K1 cells, which express the human μ-opiate receptor (RB-HOM receptor membrane preparation from PerkinElmer Life Sciences, Zaventem, Belgium), in the presence of 1 nmole/l of the radioactive ligand [^3H]-naloxone (NET719, PerkinElmer Life Sciences company, Zaventem, Belgium) and 1 mg WGA-SPA beads (wheat germ agglutinin SPA beads from Amersham/Pharmacia, Freiburg, Germany) in a total volume of 250 μl for 90 minutes at room temperature. 50 mmole/l of Tris-HCl supplemented with 0.06% bovine serum albumin is used as incubation buffer. In order to determine the non-specific binding, 100 μmole/l of naloxone is additionally added. After the end of the 90 minutes' incubation time the microtiter plates are centrifuged for 20 minutes at 1000 g and the radioactivity is measured in a beta counter (Microbeta-Trilux, PerkinElmer Wallac, Freiburg, Germany). The percentage displacement of the radioactive ligand from its binding to the human μ-opiate receptor at a concentration of the test substances of 1 μmole/l is determined and is given as percentage inhibition of the specific binding.
Take `COC(=O)C1(CSCc2ccccc2)N=CN(C2CCCCC2)C1C1CCC(C(c2ccc(Cl)cc2)N(C)C)CC1` (stereo not drawn) [Example 52, 4-benzylsulfanylmethyl-5-{4-[(4-chlorophenyl)-dimethylaminomethyl]-cyclohexyl}-1-cyclohexyl-4,5-dihydro-1H-imidazole-4-carboxylic acid methyl ester]: the inhibition at 1 µM came to 99%.
Next, `COC(=O)CCC1(C(=O)OC)N=CN(C2CCCCC2)C1CC1CCC(C(c2ccc(Cl)cc2)N(C)C)CC1` (stereo not drawn) [Example 53, 5-{4-[(4-chlorophenyl)-dimethylaminomethyl]-cyclohexylmethyl}-1-cyclohexyl-4-(2-methoxycarbonylethyl)-4,5-dihydro-1H-imidazole-4-carboxylic acid methyl ester]: 96%; `CCC(C)C1(C(=O)OC)N=CN(C2CCCCC2)C1CC1CCC(C(c2ccc(Cl)cc2)N(C)C)CC1` (stereo not drawn) [Example 54, Methyl-4-sec-butyl-5-((4-((4-chlorophenyl)(dimethylamino)methyl)cyclohexyl)methyl)-1-cyclohexyl-4,5-dihydro-1H-imidazole-4-carboxylate]: 100%.
As for `COC(=O)C1(CSC)N=CN(C2CCCCC2)C1CC1CCC(C(c2ccc(Cl)cc2)N(C)C)CC1` (stereo not drawn) [Example 55, 5-{4-[(4-chlorophenyl)-dimethylaminomethyl]-cyclohexylmethyl}-1-cyclohexyl-4-methylsulfanylmethyl-4,5-dihydro-1H-imidazole-4-carboxylic acid methyl ester], the figure is 91%; as for `COC(=O)C1(CSCc2ccccc2)N=CN(C2CCCCC2)C1CC1CCC(C(c2ccc(Cl)cc2)N(C)C)CC1` (stereo not drawn) [Example 56, 4-benzylsulfanylmethyl-5-{4-[(4-chlorophenyl)-dimethylaminomethyl]-cyclohexylmethyl}-1-cyclohexyl-4,5-dihydro-1H-imidazole-4-carboxylic acid methyl ester], 97%; as for `CCCN1C=NC(CSC)(C(=O)OC)C1C1CCC(C(c2cccc(F)c2)N(C)C)CC1` (stereo not drawn) [Example 57, 5-{4-[dimethylamino-(3-fluorophenyl)-methyl]-cyclohexyl}-4-methylsulfanylmethyl-1-propyl-4,5-dihydro-1H-imidazole-4-carboxylic acid methyl ester], 86%.
As for `CCCN1C=NC(CSCc2ccccc2)(C(=O)OC)C1C1CCC(C(c2cccc(F)c2)N(C)C)CC1` (stereo not drawn) [Example 58, 4-benzylsulfanylmethyl-5-{4-[dimethylamino-(3-fluorophenyl)-methyl]-cyclohexyl}-1-propyl-4,5-dihydro-1H-imidazole-4-carboxylic acid methyl ester], the figure is 81%; as for `CCCN1C=NC(CCC(=O)OC)(C(=O)OC)C1C1CCC(C(c2ccc(Cl)cc2)N(C)C)CC1` (stereo not drawn) [Example 59, 5-{4-[(4-chlorophenyl)-dimethylaminomethyl]-cyclohexyl}-4-(2-methoxycarbonylethyl)-1-propyl-4,5-dihydro-1H-imidazole-4-carboxylic acid methyl ester], 84%.
For the molecule `CCCN1C=NC(CSCc2ccccc2)(C(=O)OC)C1C1CCC(C(c2ccc(Cl)cc2)N(C)C)CC1` (stereo not drawn) [Example 60, 4-benzylsulfanylmethyl-5-{4-[(4-chlorophenyl)-dimethylaminomethyl]-cyclohexyl}-1-propyl-4,5-dihydro-1H-imidazole-4-carboxylic acid methyl ester], the inhibition at 1 µM stood at 95%.
With `CCCN1C=NC(CCC(=O)OC)(C(=O)OC)C1CC1CCC(C(c2ccc(Cl)cc2)N(C)C)CC1` (stereo not drawn) [Example 61, 5-{4-[(4-chlorophenyl)-dimethylaminomethyl]-cyclohexylmethyl}-4-(2-methoxycarbonylethyl)-1-propyl-4,5-dihydro-1H-imidazole-4-carboxylic acid methyl ester], the inhibition at 1 µM is 93%.
Next, `CCCN1C=NC(C(=O)OC)(C(C)CC)C1CC1CCC(C(c2ccc(Cl)cc2)N(C)C)CC1` (stereo not drawn) [Example 62, 4-sec-butyl-5-{4-[(4-chlorophenyl)-dimethylaminomethyl]-cyclohexylmethyl}-1-propyl-4,5-dihydro-1H-imidazole-4-carboxylic acid methyl ester]: 98%; `CCCN1C=NC(CSC)(C(=O)OC)C1CC1CCC(C(c2ccc(Cl)cc2)N(C)C)CC1` (stereo not drawn) [Example 63, 5-{4-[(4-chlorophenyl)-dimethylaminomethyl]-cyclohexylmethyl}-4-methylsulfanylmethyl-1-propyl-4,5-dihydro-1H-imidazole-4-carboxylic acid methyl ester]: 97%; `CCCN1C=NC(CSCc2ccccc2)(C(=O)OC)C1CC1CCC(C(c2ccc(Cl)cc2)N(C)C)CC1` (stereo not drawn) [Example 64, 4-benzylsulfanylmethyl-5-{4-[(4-chlorophenyl)-dimethylaminomethyl]-cyclohexylmethyl}-1-propyl-4,5-dihydro-1H-imidazole-4-carboxylic acid methyl ester]: 98%.
As for `CCCCN1C=NC(CCC(=O)OC)(C(=O)OC)C1C1CCC(C(c2cccc(F)c2)N(C)C)CC1` (stereo not drawn) [Example 65, 1-butyl-5-{4-[dimethylamino-(3-fluorophenyl)-methyl]-cyclohexyl}-4-(2-methoxycarbonylethyl)-4,5-dihydro-1H-imidazole-4-carboxylic acid methyl ester], the figure is 78%.
For `CCCCN1C=NC(CSC)(C(=O)OC)C1C1CCC(C(c2cccc(F)c2)N(C)C)CC1` (stereo not drawn) [Example 66, 1-butyl-5-{4-[dimethylamino-(3-fluorophenyl)-methyl]-cyclohexyl}-4-methylsulfanylmethyl-4,5-dihydro-1H-imidazole-4-carboxylic acid methyl ester], the inhibition at 1 µM is 89%.
Next, `CCCCN1C=NC(CSCc2ccccc2)(C(=O)OC)C1C1CCC(C(c2cccc(F)c2)N(C)C)CC1` (stereo not drawn) [Example 67, 4-benzylsulfanylmethyl-1-butyl-5-{4-[dimethylamino-(3-fluorophenyl)-methyl]-cyclohexyl}-4,5-dihydro-1H-imidazole-4-carboxylic acid methyl ester]: 88%; `CCCCN1C=NC(CCC(=O)OC)(C(=O)OC)C1C1CCC(C(c2ccc(Cl)cc2)N(C)C)CC1` (stereo not drawn) [Example 68, 1-butyl-5-{4-[(4-chlorophenyl)-dimethylaminomethyl]-cyclohexyl}-4-(2-methoxycarbonylethyl)-4,5-dihydro-1H-imidazole-4-carboxylic acid methyl ester]: 90%; `CCCCN1C=NC(CSCc2ccccc2)(C(=O)OC)C1C1CCC(C(c2ccc(Cl)cc2)N(C)C)CC1` (stereo not drawn) [Example 69, 4-benzylsulfanylmethyl-1-butyl-5-{4-[(4-chlorophenyl)-dimethylaminomethyl]-cyclohexyl}-4,5-dihydro-1H-imidazole-4-carboxylic acid methyl ester]: 95%.
Regarding `CCCCN1C=NC(CCC(=O)OC)(C(=O)OC)C1CC1CCC(C(c2ccc(Cl)cc2)N(C)C)CC1` (stereo not drawn) [Example 70, 1-butyl-5-{4-[(4-chlorophenyl)-dimethylaminomethyl]-cyclohexylmethyl}-4-(2-methoxycarbonylethyl)-4,5-dihydro-1H-imidazole-4-carboxylic acid methyl ester], the inhibition at 1 µM was found to be 96%.
Next, `CCCN1C=NC(CCC(=O)OC)(C(=O)OC)C1CC1CCC(C(CCc2ccccc2)N(C)C)CC1` (stereo not drawn) [Example 71, 5-[4-(1-dimethylamino-3-phenylpropyl)-cyclohexylmethyl]-4-(2-methoxycarbonylethyl)-1-propyl-4,5-dihydro-1H-imidazole-4-carboxylic acid methyl ester]: 78%; `CCCCN1C=NC(CCC(=O)OC)(C(=O)OC)C1CC1CCC(C(c2cccc(F)c2)N(C)C)CC1` (stereo not drawn) [Example 72, 1-butyl-5-{4-[dimethylamino-(3-fluorophenyl)-methyl]-cyclohexylmethyl}-4-(2-methoxycarbonylethyl)-4,5-dihydro-1H-imidazole-4-carboxylic acid methyl ester]: 95%; `CCCCN1C=NC(C(=O)OC)(C(C)CC)C1CC1CCC(C(c2cccc(F)c2)N(C)C)CC1` (stereo not drawn) [Example 73, 1-butyl-4-sec-butyl-5-{4-[dimethylamino-(3-fluorophenyl)-methyl]-cyclohexylmethyl}-4,5-dihydro-1H-imidazole-4-carboxylic acid methyl ester]: 92%.
For `CCCCN1C=NC(CSC)(C(=O)OC)C1CC1CCC(C(c2cccc(F)c2)N(C)C)CC1` (stereo not drawn) [Example 74, 1-butyl-5-{4-[dimethylamino-(3-fluorophenyl)-methyl]-cyclohexylmethyl}-4-methylsulfanylmethyl-4,5-dihydro-1H-imidazole-4-carboxylic acid methyl ester], the inhibition at 1 µM is 95%.
Next, `CCCCN1C=NC(CSCc2ccccc2)(C(=O)OC)C1CC1CCC(C(c2cccc(F)c2)N(C)C)CC1` (stereo not drawn) [Example 75, 4-benzylsulfanylmethyl-1-butyl-5-{4-[dimethylamino-(3-fluorophenyl)-methyl]-cyclohexylmethyl}-4,5-dihydro-1H-imidazole-4-carboxylic acid methyl ester]: 98%.
